Results reported in the supplement of paper PMC10307832.

Tests used:
Assay in all cases: relative viability (nuclei count vs DMSO), 5 days (fraction); higher = more cells survive
Olaparib + Trametinib = compound: O=C(c1cc(Cc2n[nH]c(=O)c3ccccc23)ccc1F)N1CCN(C(=O)C2CC2)CC1 [Olaparib] + CC(=O)Nc1cccc(-n2c(=O)n(C3CC3)c(=O)c3c(Nc4ccc(I)cc4F)n(C)c(=O)c(C)c32)c1 [Trametinib] (partner 0.02 µM)
Procedure, shortened: (§1)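 Relative viability is defined as nuclei in treated wells over nuclei in vehicle wells. Duplicate plates were run and medians reported. Lung cancer cell lines in 1536-well plates were dosed by pin tool one day after seeding, with one drug or with a fixed anchor-drug dose plus five library-drug doses (not always all listed) in √10 steps, and nuclei were counted after 5 days.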

Olaparib + Tozasertib = compound: O=C(c1cc(Cc2n[nH]c(=O)c3ccccc23)ccc1F)N1CCN(C(=O)C2CC2)CC1 [Olaparib] + Cc1cc(Nc2cc(N3CCN(C)CC3)nc(Sc3ccc(NC(=O)C4CC4)cc3)n2)n[nH]1 [Tozasertib] (partner 0.1 µM)
Procedure, shortened: as §1

Carfilzomib + Vorinostat = compound: CC(C)C[C@H](NC(=O)[C@H](CCc1ccccc1)NC(=O)CN1CCOCC1)C(=O)N[C@@H](Cc1ccccc1)C(=O)N[C@@H](CC(C)C)C(=O)[C@@]1(C)CO1 [Carfilzomib] + O=C(CCCCCCC(=O)Nc1ccccc1)NO [Vorinostat] (partner 1 µM)
Procedure, shortened: as §1

Carfilzomib + Bortezomib = compound: CC(C)C[C@H](NC(=O)[C@H](CCc1ccccc1)NC(=O)CN1CCOCC1)C(=O)N[C@@H](Cc1ccccc1)C(=O)N[C@@H](CC(C)C)C(=O)[C@@]1(C)CO1 [Carfilzomib] + CC(C)C[C@H](NC(=O)[C@H](Cc1ccccc1)NC(=O)c1cnccn1)B(O)O [Bortezomib] (partner 0.002 µM)
Procedure, shortened: as §1

| Cell Line | relative viability (Olaparib + Trametinib; first compound 0.08 µM) | relative viability (Olaparib + Trametinib; first compound 0.253 µM) | relative viability (Olaparib + Trametinib; first compound 2.53 µM) | relative viability (Olaparib + Trametinib; first compound 8 µM) | relative viability (Olaparib + Tozasertib; first compound 0.08 µM) | relative viability (Olaparib + Tozasertib; first compound 0.253 µM) | relative viability (Olaparib + Tozasertib; first compound 2.53 µM) | relative viability (Olaparib + Tozasertib; first compound 8 µM) | relative viability (Carfilzomib + Vorinostat; first compound 0.001 µM) | relative viability (Carfilzomib + Vorinostat; first compound 0.003162 µM) | relative viability (Carfilzomib + Vorinostat; first compound 0.01 µM) | relative viability (Carfilzomib + Vorinostat; first compound 0.03162 µM) | relative viability (Carfilzomib + Vorinostat; first compound 0.1 µM) | relative viability (Carfilzomib + Bortezomib; first compound 0.001 µM) | relative viability (Carfilzomib + Bortezomib; first compound 0.003162 µM) | relative viability (Carfilzomib + Bortezomib; first compound 0.01 µM) | relative viability (Carfilzomib + Bortezomib; first compound 0.03162 µM) | relative viability (Carfilzomib + Bortezomib; first compound 0.1 µM) |
| --- | --- | --- | --- | --- | --- | --- | --- | --- | --- | --- | --- | --- | --- | --- | --- | --- | --- | --- |
| COR-L 105 | 0.472 | 0.446 | 0.425 | 0.428 | 0.368 | 0.351 | 0.319 | 0.275 | 0.95 | 1 | 0.805 | 0.381 | 0.283 | 0.724 | 0.658 | 0.527 | 0.265 | 0.239 |
| ChaGo-K-1 | 0.949 | 0.792 | 0.819 | 0.735 | 0.286 | 0.198 | 0.232 | 0.197 | 0.718 | 0.802 | 0.589 | 0.235 | 0.157 | – | 1.25 | 0.851 | 0.501 | 0.381 |
| EKVX | 0.425 | 0.427 | 0.313 | 0.362 | 0.441 | 0.352 | 0.388 | 0.445 | 0.663 | 0.958 | 0.783 | 0.561 | 0.231 | 1.03 | 1.08 | 1.14 | 0.285 | 0.345 |
| EMC-BAC-2 | 0.971 | 0.844 | 0.932 | 0.806 | 0.284 | 0.296 | 0.279 | 0.262 | 0.434 | 0.587 | 0.524 | 0.247 | 0.126 | 1.03 | 1.06 | 1.07 | 0.66 | 0.448 |
| EPLC-272H | 0.363 | 0.272 | 0.306 | 0.287 | 0.193 | 0.234 | 0.312 | 0.172 | 0.518 | 0.417 | 0.108 | 0.055 | 0.0448 | 0.738 | 0.626 | 0.655 | 0.105 | 0.0698 |
| H3255 | 0.652 | 0.633 | 0.583 | 0.567 | 0.704 | 0.602 | 0.82 | 0.496 | 0.546 | 0.954 | 0.929 | – | 0.811 | 0.765 | 0.769 | 0.841 | 0.315 | 0.179 |
| HARA | 0.882 | 0.66 | 0.732 | 0.632 | 0.14 | 0.0884 | 0.0969 | 0.0782 | 0.507 | 0.561 | 0.501 | 0.436 | 0.0635 | 1.2 | 1.05 | 0.394 | 0.0539 | 0.0619 |
| HCC-15 | 0.422 | 0.387 | 0.39 | 0.353 | 0.479 | 0.341 | 0.406 | 0.29 | 0.927 | 0.821 | 0.951 | 0.506 | 0.132 | 0.979 | 0.978 | 1.01 | 0.481 | 0.0765 |
| HCC-44 | 1.04 | 0.949 | 1.01 | 0.996 | 1.27 | 0.857 | 0.871 | 1.06 | 1.2 | 1.1 | 1.13 | 1.17 | 0.604 | 0.876 | 0.917 | 0.897 | 0.552 | 0.147 |
| HCC-78 | 0.861 | 0.647 | 0.716 | 0.707 | 0.399 | 1.61 | 0.41 | 0.486 | 0.433 | 0.467 | 0.461 | 0.303 | 0.283 | 0.474 | 0.514 | 0.402 | 0.192 | 0.193 |
| HCC-366 | 0.311 | 0.311 | 0.268 | 0.214 | 0.11 | 0.118 | 0.0926 | 0.0619 | 0.315 | 0.444 | 0.313 | 0.0693 | 0.0215 | 0.891 | 0.966 | 1.07 | 0.196 | 0.0175 |
| HCC-827 | 0.52 | 0.508 | 0.498 | 0.478 | 0.414 | 0.376 | 0.399 | 0.378 | 0.821 | 0.913 | 0.943 | 0.673 | 0.189 | 1.01 | 1.01 | 1.06 | 0.677 | 0.422 |
| HOP-62 | 0.358 | 0.359 | 0.393 | 0.333 | 0.485 | 0.317 | 0.374 | 0.287 | 0.559 | 0.632 | 0.215 | 0.0689 | 0.0634 | 0.531 | 0.475 | 0.425 | 0.0851 | 0.0746 |
| LC-2-ad | 0.877 | 0.819 | 0.894 | 0.809 | 0.554 | 0.429 | 0.436 | 0.437 | 0.811 | 0.755 | 0.75 | 0.44 | 0.245 | 0.947 | 1.08 | 0.482 | 0.132 | 0.0828 |
| LCLC-97TM1 | 0.237 | 0.165 | 0.215 | 0.203 | 0.22 | 0.211 | 0.262 | 0.238 | 0.705 | 1.03 | 0.346 | 0.0531 | 0.0462 | 0.292 | 0.714 | 0.268 | 0.0483 | 0.0702 |
| LCLC-103H | 0.669 | 0.689 | 0.679 | 0.652 | 0.499 | 0.47 | 0.528 | 0.41 | 0.809 | 0.941 | 0.772 | 0.497 | 0.218 | 1 | 1.14 | 0.678 | 0.294 | 0.27 |
